In US11549123B2, “Plant EPSP synthases and methods of use” (PIONEER HI-BRED INTERNATIONAL, INC., priority 2015, dated 2023):
Substitutions are numbered along the chain they refer to.

Key:
Format in all cases: biochemical
[1] = target: T1, Zea mays EPSPS, native, SEQ ID NO:2 (Zea mays, UniProt O24566); test: Rapid two-rate method for (kcat/KM)*KI (30 uM PEP, with or without 1 mM glyphosate), native maize; details: Zm native, [E] 0.007 uM, [Gly] 0.5 uM
T1 construct: E. coli BL21(DE3), Ni-NTA purified
T1 sequence (O24566 with tags, fused parts or gaps): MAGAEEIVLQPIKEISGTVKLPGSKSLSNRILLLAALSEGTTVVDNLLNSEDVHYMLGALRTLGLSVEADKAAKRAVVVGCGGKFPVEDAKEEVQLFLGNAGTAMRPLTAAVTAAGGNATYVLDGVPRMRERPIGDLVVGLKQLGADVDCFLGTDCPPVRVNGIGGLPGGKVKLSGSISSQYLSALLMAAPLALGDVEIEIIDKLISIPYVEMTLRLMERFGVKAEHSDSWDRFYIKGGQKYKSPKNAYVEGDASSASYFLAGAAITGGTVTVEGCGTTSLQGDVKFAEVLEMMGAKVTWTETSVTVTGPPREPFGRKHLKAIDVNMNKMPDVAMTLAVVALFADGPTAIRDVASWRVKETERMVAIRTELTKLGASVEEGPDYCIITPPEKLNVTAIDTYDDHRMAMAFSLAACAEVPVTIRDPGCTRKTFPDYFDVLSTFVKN
Description: (§1) In the Michaelis-Menten equation for steady state reaction velocity with competitive inhibition, the term (kcat/KM)*KI cannot be isolated due to the KM and [S] terms in the denominator. However, if two rate measurements are made at different inhibitor concentrations, those terms can be eliminated by subtraction and (kcat/KM)*KI isolated, as follows:
(§2) [formula] where v0 and v1 are initial velocities without and with inhibitor but at the same substrate and enzyme concentrations. Although Equations 2 and 3 are equally valid, to generate the data in Table 1, rate measurement was performed with and without inhibitor using Equation 3. Source of Reagents, Enzyme and Variants
(§3) EPSPS activity was determined by quantifying the phosphate generated by the reaction. Release of phosphate was coupled to reaction with MESG, catalyzed by purine-nucleoside phosphorylase, using standard methods. The absorbance change that occurs was monitored continuously at 360 nm, where the extinction is 11,200 M-1 cm-1, with a Spectramax plate reader (Molecular Devices). […] The enzyme concentration was adjusted so as to generate sufficient signal without exceeding the limit for linear initial reaction rates. […]
(§4) There are several practical considerations for accurately estimating (kcat/KM)*KI with the rapid method. […] Conditions can be set so that variants with a pre-determined minimal fitness level are accurately quantified. […]

[2] = target: T2, Zea mays EPSPS variant Zm-H6 (868-H6) (Zea mays, UniProt O24566, A1R/A3W/A415G/A71Q/D401G/E301S/E390G/G101A/I207L/K83R/L97C/T278A/T360S/T440Q/V437R); test: Rapid two-rate method for (kcat/KM)*KI, Zm-H6; details: [E] 0.07 uM, [Gly] 1000 uM
T2 sequence (O24566 with tags, fused parts or gaps A1R/A3W/A71Q/K83R/L97C/G101A/I207L/T278A/E301S/T360S/E390G/D401G/A415G/V437R/T440Q): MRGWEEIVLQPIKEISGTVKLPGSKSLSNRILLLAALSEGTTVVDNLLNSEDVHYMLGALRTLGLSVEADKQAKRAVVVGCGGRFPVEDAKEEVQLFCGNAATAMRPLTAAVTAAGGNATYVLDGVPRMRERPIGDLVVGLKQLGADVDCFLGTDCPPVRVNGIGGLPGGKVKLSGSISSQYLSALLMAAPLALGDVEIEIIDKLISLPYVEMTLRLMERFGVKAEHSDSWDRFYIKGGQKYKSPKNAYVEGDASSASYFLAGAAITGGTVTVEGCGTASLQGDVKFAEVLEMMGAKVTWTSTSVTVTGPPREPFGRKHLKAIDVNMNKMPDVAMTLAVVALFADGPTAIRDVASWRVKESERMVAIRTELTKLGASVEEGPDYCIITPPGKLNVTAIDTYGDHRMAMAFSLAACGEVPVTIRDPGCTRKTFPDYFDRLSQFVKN
Description: as §1, §2, §3, §4

[3] = target: T3, Zea mays EPSPS variant Zm-T103I (Zea mays, UniProt O24566, T102I); test: Rapid two-rate method for (kcat/KM)*KI, Zm-T103I
T3 construct: native maize plus T103I; E. coli BL21(DE3), Ni-NTA purified
T3 sequence (O24566 with tags, fused parts or gaps T102I): T1 sequence (O24566 with tags, fused parts or gaps) with T103I
Description: There are several practical considerations for accurately estimating (kcat/KM)*KI with the rapid method. […] 2) The inhibitor concentration must be adjusted so as to obtain a degree of inhibition that minimally amplifies the error in the term v0-vi in Equation 3. If inhibition is too little, v0-vi will be small, and the error in the multiplier vi×v0/(v0-vi) will be large. […] 3) Substrate concentration should be set at the approximate KM of the parental variant(s), subject to the sensitivity of the assay. High substrate concentration obscures sensitivity to the inhibitor and reduces stringency for capturing improvements in KM. Depending on the necessity for speed, there exists opportunity for customizing enzyme and inhibitor concentrations. […] The rapid method was repeated for those and obtained data that correlated better with data obtained by substrate saturation analysis. For screening purposes however, that correlation step is not necessary. Conditions can be set so that variants with a pre-determined minimal fitness level are accurately quantified.
In Table 15, parameters above the heavy line for the rapid method were obtained under standard conditions. For variants shown below the heavy line, the rapid analysis was repeated with enzyme or glyphosate concentrations adjusted as needed to generate sufficient signal within the limits for linear initial rates.

SMILES: O=C(O)CNCP(=O)(O)O [glyphosate, N-phosphonomethylglycine]
- (kcat/KM)*KI [1]: 11
- (kcat/KM)*KI [2]: 4013
- (kcat/KM)*KI ([3]; rapid method repeated, [E] 0.103 uM, [Gly] 100 uM): 116
- (kcat/KM)*KI ([3]; rapid method, [E] 0.07 uM, [Gly] 1000 uM): 133
